Tests used:
Assay in all cases: Eurofins kinase panel
Assay type in all cases: biochemical
Settings in all cases: read-out: Inhibition rate (%)
EphB2(h) = biological target: T1, EphB2(h) (Homo sapiens, UniProt P29323)
T1 construct: purchased Eurofins (KinaseProfiler)
T1 sequence (P29323 19-1055): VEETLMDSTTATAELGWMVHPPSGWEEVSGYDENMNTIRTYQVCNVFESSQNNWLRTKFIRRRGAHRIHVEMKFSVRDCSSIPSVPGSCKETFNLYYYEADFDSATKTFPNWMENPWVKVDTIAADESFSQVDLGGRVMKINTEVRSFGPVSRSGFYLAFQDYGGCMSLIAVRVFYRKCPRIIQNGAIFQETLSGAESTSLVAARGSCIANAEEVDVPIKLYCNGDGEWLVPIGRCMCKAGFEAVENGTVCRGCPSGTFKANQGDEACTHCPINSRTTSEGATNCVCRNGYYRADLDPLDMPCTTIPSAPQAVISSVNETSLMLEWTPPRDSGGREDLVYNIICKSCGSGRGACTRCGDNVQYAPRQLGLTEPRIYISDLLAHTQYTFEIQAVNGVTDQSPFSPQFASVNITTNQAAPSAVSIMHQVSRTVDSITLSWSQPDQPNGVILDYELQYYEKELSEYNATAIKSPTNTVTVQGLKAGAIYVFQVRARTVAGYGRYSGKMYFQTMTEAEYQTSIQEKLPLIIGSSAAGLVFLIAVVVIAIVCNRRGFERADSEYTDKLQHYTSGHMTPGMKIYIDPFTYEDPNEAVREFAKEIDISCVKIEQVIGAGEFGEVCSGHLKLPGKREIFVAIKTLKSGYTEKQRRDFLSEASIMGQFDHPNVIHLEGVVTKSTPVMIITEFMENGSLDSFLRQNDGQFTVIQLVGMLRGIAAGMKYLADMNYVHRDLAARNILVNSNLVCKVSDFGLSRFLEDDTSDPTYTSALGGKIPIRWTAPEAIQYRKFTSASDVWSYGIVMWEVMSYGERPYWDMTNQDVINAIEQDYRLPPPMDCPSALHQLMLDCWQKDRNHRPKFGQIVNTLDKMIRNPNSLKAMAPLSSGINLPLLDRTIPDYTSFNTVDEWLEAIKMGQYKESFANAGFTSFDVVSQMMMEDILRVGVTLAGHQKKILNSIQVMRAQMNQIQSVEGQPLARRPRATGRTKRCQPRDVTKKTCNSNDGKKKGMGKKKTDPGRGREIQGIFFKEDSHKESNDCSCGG

FGFR4(h) = biological target: T2, FGFR4(h) (Homo sapiens, UniProt P22455)
T2 construct: purchased Eurofins (KinaseProfiler)

MAPK1(h) = biological target: T3, MAPK1(h) (Homo sapiens, UniProt P27361)
T3 construct: purchased Eurofins (KinaseProfiler)

MEK1(h) = biological target: T4, MEK1(h) (Homo sapiens, UniProt Q02750)
T4 construct: purchased Eurofins (KinaseProfiler)

Met(Y1248D)(h) = biological target: T5, Met(Y1248D)(h) (Homo sapiens, UniProt P08581, Y1230D)
T5 construct: purchased Eurofins (KinaseProfiler)

ZAP-70(h) = biological target: T6, ZAP-70(h) (Homo sapiens, UniProt P43403)
T6 construct: purchased Eurofins (KinaseProfiler)
T6 sequence (P43403 1-619): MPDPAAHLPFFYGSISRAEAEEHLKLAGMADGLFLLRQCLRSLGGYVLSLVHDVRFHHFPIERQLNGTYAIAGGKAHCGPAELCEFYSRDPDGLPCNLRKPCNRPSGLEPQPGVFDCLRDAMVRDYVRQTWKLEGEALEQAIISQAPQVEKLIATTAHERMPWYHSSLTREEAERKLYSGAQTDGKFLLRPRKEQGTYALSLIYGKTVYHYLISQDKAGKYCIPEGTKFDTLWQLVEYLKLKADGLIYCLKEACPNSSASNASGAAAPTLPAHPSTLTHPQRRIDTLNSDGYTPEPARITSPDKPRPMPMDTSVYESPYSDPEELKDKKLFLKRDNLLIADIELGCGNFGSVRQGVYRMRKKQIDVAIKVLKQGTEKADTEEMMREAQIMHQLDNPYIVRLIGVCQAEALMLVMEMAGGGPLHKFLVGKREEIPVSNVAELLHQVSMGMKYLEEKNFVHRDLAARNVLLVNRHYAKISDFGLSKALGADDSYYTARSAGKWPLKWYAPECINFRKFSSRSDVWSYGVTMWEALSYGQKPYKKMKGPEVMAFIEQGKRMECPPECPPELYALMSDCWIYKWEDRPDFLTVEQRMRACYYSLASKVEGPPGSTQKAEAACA

T5 sequence (P08581 956-1390 Y1230D limits assumed): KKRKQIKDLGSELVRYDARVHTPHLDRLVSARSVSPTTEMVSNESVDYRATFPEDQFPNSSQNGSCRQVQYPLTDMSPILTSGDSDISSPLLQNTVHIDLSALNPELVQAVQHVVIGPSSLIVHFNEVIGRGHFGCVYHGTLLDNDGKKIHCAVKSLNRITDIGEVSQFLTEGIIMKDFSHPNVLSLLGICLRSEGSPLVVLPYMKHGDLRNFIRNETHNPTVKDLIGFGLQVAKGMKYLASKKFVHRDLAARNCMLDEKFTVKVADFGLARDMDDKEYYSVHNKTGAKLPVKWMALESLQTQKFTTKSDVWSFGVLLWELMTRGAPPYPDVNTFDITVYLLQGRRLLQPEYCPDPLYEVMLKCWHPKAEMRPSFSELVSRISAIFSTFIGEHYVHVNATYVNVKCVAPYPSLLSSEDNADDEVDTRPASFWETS
T3 sequence (P27361 whole entry): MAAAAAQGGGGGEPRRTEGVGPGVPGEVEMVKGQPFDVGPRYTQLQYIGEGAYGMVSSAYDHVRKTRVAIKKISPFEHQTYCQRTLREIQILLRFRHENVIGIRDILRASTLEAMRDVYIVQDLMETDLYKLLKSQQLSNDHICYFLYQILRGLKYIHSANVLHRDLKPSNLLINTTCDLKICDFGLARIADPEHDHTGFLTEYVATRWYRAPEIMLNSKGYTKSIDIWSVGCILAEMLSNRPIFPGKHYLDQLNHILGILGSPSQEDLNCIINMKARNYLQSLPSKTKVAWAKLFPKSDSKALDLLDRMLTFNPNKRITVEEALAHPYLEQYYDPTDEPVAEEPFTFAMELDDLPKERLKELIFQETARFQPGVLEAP
T2 sequence (P22455 22-802): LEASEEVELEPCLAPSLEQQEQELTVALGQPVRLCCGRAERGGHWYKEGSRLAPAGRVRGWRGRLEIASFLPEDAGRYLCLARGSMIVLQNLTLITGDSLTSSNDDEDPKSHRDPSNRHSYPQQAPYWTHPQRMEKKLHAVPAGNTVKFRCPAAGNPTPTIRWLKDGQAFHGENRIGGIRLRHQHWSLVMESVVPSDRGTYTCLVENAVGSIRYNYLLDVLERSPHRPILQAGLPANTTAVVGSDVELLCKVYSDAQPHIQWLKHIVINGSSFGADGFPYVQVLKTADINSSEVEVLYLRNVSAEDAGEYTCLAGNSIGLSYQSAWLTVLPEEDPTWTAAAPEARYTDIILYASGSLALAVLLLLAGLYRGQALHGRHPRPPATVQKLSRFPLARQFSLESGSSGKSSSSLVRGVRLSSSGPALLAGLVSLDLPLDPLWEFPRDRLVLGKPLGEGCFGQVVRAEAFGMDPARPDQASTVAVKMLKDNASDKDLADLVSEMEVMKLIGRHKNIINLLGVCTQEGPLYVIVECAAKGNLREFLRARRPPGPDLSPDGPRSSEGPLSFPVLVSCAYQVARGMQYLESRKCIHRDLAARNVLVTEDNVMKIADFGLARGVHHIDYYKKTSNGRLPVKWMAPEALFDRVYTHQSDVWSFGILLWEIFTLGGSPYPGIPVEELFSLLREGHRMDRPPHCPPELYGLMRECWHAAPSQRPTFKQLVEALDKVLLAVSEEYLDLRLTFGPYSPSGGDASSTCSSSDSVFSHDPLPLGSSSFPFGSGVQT
T4 sequence (Q02750 whole entry): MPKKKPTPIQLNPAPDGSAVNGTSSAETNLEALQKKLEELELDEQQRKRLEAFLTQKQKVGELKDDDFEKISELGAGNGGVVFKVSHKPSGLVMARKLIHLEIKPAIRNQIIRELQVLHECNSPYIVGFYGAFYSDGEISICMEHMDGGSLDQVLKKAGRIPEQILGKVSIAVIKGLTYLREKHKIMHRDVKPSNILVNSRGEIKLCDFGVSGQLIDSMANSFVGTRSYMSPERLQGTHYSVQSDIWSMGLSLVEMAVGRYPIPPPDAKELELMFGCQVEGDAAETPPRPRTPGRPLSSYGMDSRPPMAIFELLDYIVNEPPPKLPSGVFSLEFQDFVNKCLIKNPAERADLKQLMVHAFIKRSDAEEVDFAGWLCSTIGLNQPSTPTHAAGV

Q: `COc1cc(OC)c(Cl)c(-c2ccc3c(NC(=O)c4ccc(N5CCNC(C)(C)C5)cc4)n[nH]c3n2)c1Cl` [3D185] was tested. Which inhibition at 0.01 µM (EphB2(h); 10 nM) did it give?
A: 12%

Q: What about the inhibition at 0.1 µM (EphB2(h); 100 nM) of the same molecule?
A: 6%

Q: What about the inhibition at 1 µM (EphB2(h); 1000 nM) of the same molecule?
A: 15%

Q: And the inhibition at 0.01 µM (FGFR4(h); 10 nM)?
A: 43%

Q: And the inhibition at 0.1 µM (FGFR4(h); 100 nM)?
A: 91%

Q: And the inhibition at 1 µM (FGFR4(h); 1000 nM)?
A: 100%

Q: What about the inhibition at 0.01 µM (MAPK1(h); 10 nM) of the same molecule?
A: -5%

Q: What about the inhibition at 0.1 µM (MAPK1(h); 100 nM) of the same molecule?
A: -6%

Q: What about the inhibition at 1 µM (MAPK1(h); 1000 nM) of the same molecule?
A: 0%

Q: What about the inhibition at 0.01 µM (MEK1(h); 10 nM) of the same molecule?
A: 10%

Q: And the inhibition at 0.1 µM (MEK1(h); 100 nM)?
A: 14%

Q: What about the inhibition at 1 µM (MEK1(h); 1000 nM) of the same molecule?
A: 8%

Q: And the inhibition at 0.01 µM (Met(Y1248D)(h); 10 nM)?
A: -12%

Q: What about the inhibition at 0.1 µM (Met(Y1248D)(h); 100 nM) of the same molecule?
A: -1%

Q: What about the inhibition at 1 µM (Met(Y1248D)(h); 1000 nM) of the same molecule?
A: 18%

Q: What about the inhibition at 0.01 µM (ZAP-70(h); 10 nM) of the same molecule?
A: 12%

Q: What about the inhibition at 0.1 µM (ZAP-70(h); 100 nM) of the same molecule?
A: 0%

Q: And the inhibition at 1 µM (ZAP-70(h); 1000 nM)?
A: 8%

Source: PMC6704710, “Preclinical evaluation of 3D185, a novel potent inhibitor of FGFR1/2/3 and CSF-1R, in FGFR-dependent and macrophage-dominant cancer models” (Journal of Experimental & Clinical Cancer Research : CR, 2019)
